From ChEMBL document CHEMBL1201862, “PubChem BioAssay data set” (2004)
Structures can show the parent of a compound that is named as a salt. Active and inactive are the calls of the source.

Legend:
[1] = target: T1, RNA-binding protein pos-1 (Caenorhabditis elegans, UniProt G5EF15); assay: inhibitors of POS-1/mex-3 RNA binding, dose response, biochemical, fluorescence polarization (AID 1964);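 also: purified POS-1 fused to maltose binding protein made in E. coli; potency of compounds blocking POS-1 binding to fluorescent RNA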
T1 sequence (G5EF15 whole entry): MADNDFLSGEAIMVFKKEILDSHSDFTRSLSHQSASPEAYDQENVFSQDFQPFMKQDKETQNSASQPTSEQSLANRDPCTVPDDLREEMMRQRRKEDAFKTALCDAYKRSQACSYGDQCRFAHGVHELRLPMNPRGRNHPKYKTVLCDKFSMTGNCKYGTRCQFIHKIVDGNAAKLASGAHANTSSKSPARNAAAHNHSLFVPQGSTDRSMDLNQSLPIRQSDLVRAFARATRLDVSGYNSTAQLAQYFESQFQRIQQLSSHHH

[2] = target: T2, Zinc finger protein mex-5 (Caenorhabditis elegans, UniProt Q9XUB2); assay: MEX-5/TCR-2 RNA interaction inhibitors, dose response, biochemical, C. elegans, fluorescence polarization (AID 1960)
T2 sequence (Q9XUB2 whole entry): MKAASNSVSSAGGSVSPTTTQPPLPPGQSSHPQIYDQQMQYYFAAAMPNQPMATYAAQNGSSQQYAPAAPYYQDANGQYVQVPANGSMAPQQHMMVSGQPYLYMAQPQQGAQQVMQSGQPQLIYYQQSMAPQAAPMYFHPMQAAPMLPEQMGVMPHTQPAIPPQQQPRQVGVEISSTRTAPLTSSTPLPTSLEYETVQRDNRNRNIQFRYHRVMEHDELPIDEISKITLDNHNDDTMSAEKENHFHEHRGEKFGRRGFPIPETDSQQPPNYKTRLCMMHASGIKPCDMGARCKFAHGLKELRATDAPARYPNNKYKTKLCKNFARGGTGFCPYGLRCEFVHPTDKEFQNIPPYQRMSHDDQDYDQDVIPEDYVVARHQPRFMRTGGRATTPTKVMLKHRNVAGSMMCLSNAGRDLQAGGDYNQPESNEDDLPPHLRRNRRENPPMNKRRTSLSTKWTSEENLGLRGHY

[3] = cells; type: functional
[4] = target: Cytochrome P450 2C9 (Homo sapiens, UniProt P11712)
[5] = inhibitors of firefly luciferase expression or activity, dose response, H4 neuroglioma cells, luminescence (AID 1990); type: functional, cell-based
[6] = inhibitors of SNCA 5'UTR-driven reporter translation, confirmation, H4 neuroglioma cells, luminescence (AID 1988); type: functional, cell-based
[7] = target: Cytochrome P450 3A4 (Homo sapiens, UniProt P08684);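 also: CYP3A4 tested as one member of a cytochrome P450 panel screen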
[8] = Luminescence Cell-Based Dose Response HTS to Identify Inhibitors of 5'UTR Stem-Loop Driven Prion Protein mRNA Translation in H4 Neuroglioblastoma Cells. [Related pubchem assays: 1827 (Project Summary), 1813 (Primary HTS)]; type: functional
[9] = target: T3, Corticotropin-releasing factor receptor 2/Corticotropin-releasing factor-binding protein (Homo sapiens, UniProt P24387+Q13324); assay: activators of CRF receptor 2 with binding protein – uHTS hits, confirmation (AID 602473); type: functional; conditions: read-out: EC50_Mean
T3 sequence (Q13324 whole entry): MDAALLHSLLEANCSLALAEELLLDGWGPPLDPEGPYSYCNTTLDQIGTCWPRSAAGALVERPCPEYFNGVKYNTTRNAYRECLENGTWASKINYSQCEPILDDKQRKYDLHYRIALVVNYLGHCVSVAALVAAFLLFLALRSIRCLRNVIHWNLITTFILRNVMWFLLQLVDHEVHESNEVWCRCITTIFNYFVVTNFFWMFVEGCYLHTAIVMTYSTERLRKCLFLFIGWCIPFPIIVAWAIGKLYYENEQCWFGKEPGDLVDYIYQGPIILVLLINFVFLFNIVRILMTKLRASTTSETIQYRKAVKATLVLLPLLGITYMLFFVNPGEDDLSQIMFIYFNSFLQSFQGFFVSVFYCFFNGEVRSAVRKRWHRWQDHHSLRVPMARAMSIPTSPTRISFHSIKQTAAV
T3 sequence (P24387 whole entry): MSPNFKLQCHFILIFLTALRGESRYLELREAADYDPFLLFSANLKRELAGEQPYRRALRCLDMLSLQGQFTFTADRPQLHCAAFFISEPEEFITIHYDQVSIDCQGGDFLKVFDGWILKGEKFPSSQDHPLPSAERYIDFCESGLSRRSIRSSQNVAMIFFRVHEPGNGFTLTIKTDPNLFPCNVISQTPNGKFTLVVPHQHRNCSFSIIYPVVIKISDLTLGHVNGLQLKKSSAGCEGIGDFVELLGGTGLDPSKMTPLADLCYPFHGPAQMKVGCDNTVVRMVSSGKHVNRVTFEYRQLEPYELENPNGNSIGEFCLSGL

[10] = target: T3, Corticotropin-releasing factor receptor 2/Corticotropin-releasing factor-binding protein; assay: Dose Response confirmation of uHTS hits for small molecule antagonists of the CRF-binding protein and CRF-R2 receptor complex.; type: functional; conditions: read-out: IC50_Mean
[11] = target: Cytochrome P450 2C19 (Homo sapiens, UniProt P33261); assay: Cytochrome panel assay with activity outcomes. Panel member name: p450-cyp2c19 Compounds with AC50 equal or less than 10 uM are considered active; type: functional; conditions: read-out: AC50
[12] = target: T4, Heat shock factor protein 1 (Mus musculus, UniProt P38532); assay: inhibition of MG132-induced HSE-luciferase signal, confirmation, cell-based, NIH3T3, luminescence, dose retest (AID 2382); type: functional;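 also: NIH3T3 fibroblasts with HSF1-driven luciferase reporter stressed by proteasome inhibitor MG132; luminescence from HSF1-driven luciferase expression after 8 hours of MG132 stress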
T4 sequence (P38532 whole entry): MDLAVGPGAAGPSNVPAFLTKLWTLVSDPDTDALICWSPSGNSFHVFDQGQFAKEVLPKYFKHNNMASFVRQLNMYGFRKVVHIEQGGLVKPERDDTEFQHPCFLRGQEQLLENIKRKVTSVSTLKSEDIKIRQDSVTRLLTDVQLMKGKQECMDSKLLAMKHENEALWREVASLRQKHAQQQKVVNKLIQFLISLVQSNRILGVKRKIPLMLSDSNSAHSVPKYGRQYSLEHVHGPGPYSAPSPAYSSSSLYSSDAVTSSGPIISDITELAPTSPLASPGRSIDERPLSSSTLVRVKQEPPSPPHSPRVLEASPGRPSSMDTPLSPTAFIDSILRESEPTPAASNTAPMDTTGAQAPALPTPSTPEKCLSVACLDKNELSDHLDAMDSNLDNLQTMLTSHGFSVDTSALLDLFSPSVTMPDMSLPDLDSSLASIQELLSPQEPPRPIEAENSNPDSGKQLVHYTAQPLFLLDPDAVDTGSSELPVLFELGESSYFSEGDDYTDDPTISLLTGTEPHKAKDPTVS

[13] = target: Cytochrome P450 2D6 (Homo sapiens, UniProt P10635);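 also: CYP2D6 member of a cytochrome P450 panel assay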
[14] = target: T5, Cytochrome P450 1A2 (Homo sapiens, UniProt P05177);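 also: PubChem cytochrome P450 panel assay, CYP1A2 panel member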
T5 sequence (P05177 whole entry): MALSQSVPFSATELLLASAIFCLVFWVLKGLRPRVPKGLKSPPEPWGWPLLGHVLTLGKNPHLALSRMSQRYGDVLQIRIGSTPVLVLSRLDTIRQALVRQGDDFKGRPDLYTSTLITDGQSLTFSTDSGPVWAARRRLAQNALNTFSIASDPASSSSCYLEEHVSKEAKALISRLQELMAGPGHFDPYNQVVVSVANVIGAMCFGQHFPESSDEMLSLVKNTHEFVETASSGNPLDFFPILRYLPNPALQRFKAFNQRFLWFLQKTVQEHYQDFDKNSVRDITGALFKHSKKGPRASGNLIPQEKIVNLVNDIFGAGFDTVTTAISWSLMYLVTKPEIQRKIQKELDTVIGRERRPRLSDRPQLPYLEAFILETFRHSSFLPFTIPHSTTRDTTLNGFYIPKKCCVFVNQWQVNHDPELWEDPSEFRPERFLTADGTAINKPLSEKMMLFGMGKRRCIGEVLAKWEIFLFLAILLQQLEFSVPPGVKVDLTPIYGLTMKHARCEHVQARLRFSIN

[15] = inhibitors of intracellular T. cruzi replication, confirmation, NIH3T3 host cells, beta-gal luminescence (AID 2044); type: functional, cell-based;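 also: intracellular parasites grown in NIH/3T3 mouse fibroblasts as host cells; luminescent beta-galactosidase reporter signal from transgenic T. cruzi replicating inside host cells; inhibitors lower the luminescence signal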
[16] = cytotoxicity toward NIH3T3 fibroblasts, dose response, counter-screen, cell-based, ATP luminescence, mouse fibroblasts (AID 2010); type: functional;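 also: cells exposed to compound for about 90 hours before reading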

Sequence of Cytochrome P450 2C9 (P11712 whole entry): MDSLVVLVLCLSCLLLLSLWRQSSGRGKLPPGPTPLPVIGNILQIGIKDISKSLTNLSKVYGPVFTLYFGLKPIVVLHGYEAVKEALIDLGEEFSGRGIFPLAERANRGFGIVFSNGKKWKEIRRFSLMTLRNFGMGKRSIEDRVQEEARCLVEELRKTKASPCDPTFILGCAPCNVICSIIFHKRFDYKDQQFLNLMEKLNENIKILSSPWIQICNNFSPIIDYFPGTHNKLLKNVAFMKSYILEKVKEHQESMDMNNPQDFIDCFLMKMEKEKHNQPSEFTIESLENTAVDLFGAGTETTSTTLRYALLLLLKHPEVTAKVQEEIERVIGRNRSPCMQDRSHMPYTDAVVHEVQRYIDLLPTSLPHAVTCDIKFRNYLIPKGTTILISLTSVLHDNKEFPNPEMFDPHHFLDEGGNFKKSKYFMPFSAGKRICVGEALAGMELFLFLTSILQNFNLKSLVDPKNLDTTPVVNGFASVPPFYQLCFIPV
Sequence of Cytochrome P450 3A4 (P08684 whole entry): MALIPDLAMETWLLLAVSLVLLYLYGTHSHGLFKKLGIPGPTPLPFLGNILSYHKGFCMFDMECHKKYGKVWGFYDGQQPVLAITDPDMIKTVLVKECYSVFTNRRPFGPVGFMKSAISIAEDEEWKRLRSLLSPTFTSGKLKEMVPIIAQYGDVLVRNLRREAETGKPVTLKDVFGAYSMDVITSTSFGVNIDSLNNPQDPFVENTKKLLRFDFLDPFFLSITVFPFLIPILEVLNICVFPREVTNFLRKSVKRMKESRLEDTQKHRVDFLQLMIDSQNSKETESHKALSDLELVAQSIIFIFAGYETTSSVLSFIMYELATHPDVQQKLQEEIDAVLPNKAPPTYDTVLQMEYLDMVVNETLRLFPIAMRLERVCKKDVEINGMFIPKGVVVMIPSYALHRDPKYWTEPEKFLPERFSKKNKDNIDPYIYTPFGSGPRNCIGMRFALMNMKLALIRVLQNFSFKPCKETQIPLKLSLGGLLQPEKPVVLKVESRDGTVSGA
Sequence of Cytochrome P450 2C19 (P33261 whole entry): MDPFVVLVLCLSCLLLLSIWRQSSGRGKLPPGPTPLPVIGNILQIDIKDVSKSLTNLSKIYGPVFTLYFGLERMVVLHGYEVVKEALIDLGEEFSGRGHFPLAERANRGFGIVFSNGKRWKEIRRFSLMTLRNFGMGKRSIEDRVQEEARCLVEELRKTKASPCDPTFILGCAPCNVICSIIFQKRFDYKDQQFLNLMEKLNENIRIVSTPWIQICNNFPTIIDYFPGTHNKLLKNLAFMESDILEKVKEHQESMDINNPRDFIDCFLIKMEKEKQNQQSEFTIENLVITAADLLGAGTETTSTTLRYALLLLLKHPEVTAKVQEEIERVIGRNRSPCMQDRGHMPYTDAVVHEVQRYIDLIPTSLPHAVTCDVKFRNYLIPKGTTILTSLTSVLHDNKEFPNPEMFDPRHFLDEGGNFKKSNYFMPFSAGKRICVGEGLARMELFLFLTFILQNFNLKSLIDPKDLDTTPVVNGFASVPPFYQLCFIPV
Sequence of Cytochrome P450 2D6 (P10635 whole entry): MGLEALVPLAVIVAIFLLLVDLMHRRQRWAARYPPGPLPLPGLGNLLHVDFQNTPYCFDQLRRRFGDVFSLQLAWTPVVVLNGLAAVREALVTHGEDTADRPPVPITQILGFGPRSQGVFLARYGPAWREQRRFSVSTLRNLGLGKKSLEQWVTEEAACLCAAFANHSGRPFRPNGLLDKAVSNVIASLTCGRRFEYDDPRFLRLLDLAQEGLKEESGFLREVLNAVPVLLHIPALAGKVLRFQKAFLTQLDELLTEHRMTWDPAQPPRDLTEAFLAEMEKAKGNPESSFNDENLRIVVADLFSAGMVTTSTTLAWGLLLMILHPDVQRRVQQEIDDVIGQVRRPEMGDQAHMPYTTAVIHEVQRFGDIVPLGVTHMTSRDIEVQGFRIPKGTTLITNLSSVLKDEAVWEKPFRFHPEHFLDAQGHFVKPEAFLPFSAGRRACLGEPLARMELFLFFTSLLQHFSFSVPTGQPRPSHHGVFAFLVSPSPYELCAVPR

SMILES: Cc1ccccc1C1=N/C(=C/c2cccs2)C(=O)O1
- EC50 [1]: > 300 µM (not active)
- EC50 [2]: 39.1 µM (active)

SMILES: COC(=O)C1=C(N)OC2=C(C(=O)CC(C)(C)C2)C1c1cccnc1 (stereo not given)
- IC50 [3]: > 50 µM (active)

SMILES: COc1ccc(NC(=O)c2ccc(C(=O)c3cc(OC)ccc3OC)cc2)cc1
- AC50 [4]: 22.4 µM (inconclusive)

SMILES: COC(=O)c1nn(-c2ccccc2)c(-c2ccccc2)c1C(=O)c1ccccc1
- AC50 [4]: 15.8 µM (inconclusive)
- EC50 [5]: > 120 µM (not active)
- EC50 [6]: > 120 µM (not active)
- AC50 [7]: 14.1 µM (inconclusive)
- EC50 [8]: > 120 µM (not active)

SMILES: Cc1ccc(Sc2c(C=O)c3ccccc3n2C)cc1
- EC50 [9]: > 53 µM (inactive)
- IC50 [10]: > 47.1 µM (inactive)

SMILES: Fc1ccc([C@H]2CCNC[C@H]2COc2ccc3c(c2)OCO3)cc1
- AC50 [4]: 2 µM (inconclusive)

SMILES: Cc1ccc(O)c(-c2cc(C(F)(F)C(F)F)nc(-c3ccccc3)n2)c1
- AC50 [11]: 14.1 µM (inconclusive)
- AC50 [4]: 7.08 µM (inconclusive)
- AC50 [7]: 8.91 µM (inconclusive)

SMILES: N#CC1=C(N)Oc2cc(N)ccc2C1c1ccccc1Cl (stereo not given)
- EC50 [12]: > 195 µM (not active)

SMILES: CSc1ccc(CN(C)Cc2cc(=O)oc3c(C)c(C)ccc23)cc1
- EC50 [12]: > 195 µM (not active)

SMILES: O=C(Nc1cccc2ncccc12)c1ccc(-c2ccc(Br)cc2)o1
- AC50 [4]: 0.282 µM (inconclusive)
- AC50 [13]: 12.6 µM (inconclusive)

SMILES: C=CCNC(=S)NNC(=O)c1cc(-c2cccnc2)nc2ccccc12
- EC50 [12]: > 195 µM (not active)

SMILES: Cc1ccc(NC(=O)/C(=C\c2cccnc2)NC(=O)c2ccco2)cc1
- AC50 [11]: 35.5 µM (inconclusive)
- AC50 [4]: 20 µM (inconclusive)

SMILES: CCN(CC)CCN/C=C1\C(=O)NC(=O)N(CCc2ccccc2)C1=O
- EC50 [1]: > 300 µM (not active)
- EC50 [2]: > 300 µM (not active)

SMILES: CCN1C(=O)NC(=O)/C(=C\c2cn(CC(=O)O)c3ccccc23)C1=O
- EC50 [1]: > 300 µM (not active)
- EC50 [2]: > 300 µM (not active)

SMILES: O=C1c2ccc3c4c(ccc(c24)C(=O)N1c1ccc2ccccc2c1)CC3
- AC50 [11]: 2.24 µM (inconclusive)
- AC50 [4]: 3.98 µM (inconclusive)
- EC50 [5]: 11.6 µM (active)
- EC50 [6]: 119 µM (active)
- EC50 [8]: 36.6 µM (active)

SMILES: COC(=O)C1CC(Cl)CN1c1ncc(C(F)(F)F)cc1Cl (stereo not given)
- EC50 [9]: > 53 µM (inactive)
- IC50 [10]: > 47.1 µM (inactive)

SMILES: CC(C)CC(=O)Nc1c2c(nn1-c1ccc(F)cc1)C[S+]([O-])C2 (stereo not given)
- EC50 [12]: > 195 µM (not active)

SMILES: CCOCCOC(=O)c1ccc(NC(=O)C2COc3ccccc3O2)cc1 (stereo not given)
- IC50 [3]: 15.2 µM (active)

SMILES: CCn1ncc2c(OCc3ccc(C#N)cc3)cc(C)nc21
- EC50 [5]: 21.5 µM (active)
- EC50 [6]: 61.8 µM (active)
- EC50 [8]: 24.9 µM (active)

SMILES: CC(C)NC(=O)N1CCCC2(CCN(C(=O)Oc3ccccc3)CC2)C1
- AC50 [14]: 12.6 µM (inconclusive)
- AC50 [4]: 12.6 µM (inconclusive)
- AC50 [7]: 25.1 µM (inconclusive)

SMILES: CC(C)(C)n1nc2c(c1NC(=O)Cc1ccccc1)CS(=O)(=O)C2
- EC50 [9]: > 53 µM (inactive)
- IC50 [10]: > 47.1 µM (inactive)

SMILES: NS(=O)(=O)c1ccc(/N=N\c2ncccc2O)cc1
- AC50 [14]: 2 µM (inconclusive)
- AC50 [4]: 6.31 µM (inconclusive)
- AC50 [7]: 3.98 µM (inconclusive)

SMILES: O=C(NNc1nc2ccccc2s1)Nc1ccccc1
- EC50 [12]: > 195 µM (not active)

SMILES: Cc1cccc2cc(C#N)c(N3CCN(C)CC3)nc12
- EC50 [9]: > 53 µM (inactive)
- IC50 [10]: > 47.1 µM (inactive)

SMILES: O=C(CCl)NC(Cc1ccccc1)c1ccccc1 (stereo not given)
- EC50 [12]: 17.1 µM (active)

SMILES: Cc1nc2c(sc3nc(N4CCOCC4)c4c(c32)CC(C)(C)OC4)c(-c2ccc(Cl)cc2)c1C(=O)O
- EC50 [12]: > 195 µM (not active)

SMILES: Cn1cc(C(=O)c2ccccc2)c2ccccc21
- EC50 [9]: > 53 µM (inactive)
- IC50 [10]: > 47.1 µM (inactive)

SMILES: O=C(Nc1ccc(Cl)c(C(F)(F)F)c1)C1CCCN(S(=O)(=O)c2c[nH]cn2)C1 (stereo not given)
- AC50 [4]: 0.501 µM (inconclusive)

SMILES: C/C(=N\Nc1cccc2cccnc12)c1ccccn1
- EC50 [15]: 2.51 µM (active)
- IC50 [3]: 13.8 µM (active)
- EC50 [16]: > 60 µM (not active)

SMILES: Cn1c(=O)c2nc(N/N=C(/C#N)C(N)=O)[nH]c2n(C)c1=O
- EC50 [1]: > 300 µM (not active)
- EC50 [2]: 52.4 µM (active)

SMILES: Cc1oc(/N=C/c2ccc(O)cc2O)c(C#N)c1C
- EC50 [1]: > 300 µM (not active)
- EC50 [2]: > 300 µM (not active)

SMILES: CCO/C(C)=N/n1c2nc3ccccc3nc2c2c(=O)n(CC(C)C)c(C)nc21
- AC50 [4]: 12.6 µM (inconclusive)

SMILES: COc1ccc2c3c1O[C@H]1C[C@@H](O)C=C[C@@]31CCN(C)C2 [GALANTAMINE HYDROBROMIDE]
- EC50 [5]: > 120 µM (not active)
- EC50 [6]: 11.1 µM (active)
- EC50 [8]: > 120 µM (not active)
